Reference: ChEMBL document CHEMBL1201861, “Genomics of Drug Sensitity in Cancer screening data, Wellcome Trust Sanger Institute”
pIC50: −log10 of the molar value.

Tested on: Calu-3;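 also: growth inhibition of human Calu-3 cells, determined with a cell viability assay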
Assay: cells
Assay type: functional, cell-based
Details: Homo sapiens
Description: SANGER: Inhibition of human Calu-3 cell growth in a cell viability assay.

Row | Structure (SMILES) | pIC50
1 | CN(NC(=O)CC(=O)NN(C)C(=S)c1ccccc1)C(=S)c1ccccc1 [ELESCLOMOL] | < 6.70

Tested on: EFO-27;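 also: growth inhibition of EFO-27 cells, read out with a cell viability assay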
Assay: cells
Assay type: functional, cell-based
Details: Homo sapiens
Description: SANGER: Inhibition of human EFO-27 cell growth in a cell viability assay.

Row | Structure (SMILES) | pIC50
2 | CN(NC(=O)CC(=O)NN(C)C(=S)c1ccccc1)C(=S)c1ccccc1 [ELESCLOMOL] | 8.11

Tested on: FaDu;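 also: cell viability readout of growth inhibition in FaDu cells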
Assay: cells
Assay type: functional, cell-based
Details: Homo sapiens
Description: SANGER: Inhibition of human FADU cell growth in a cell viability assay.

Row | Structure (SMILES) | pIC50
3 | CN(NC(=O)CC(=O)NN(C)C(=S)c1ccccc1)C(=S)c1ccccc1 [ELESCLOMOL] | 8.25

Tested on: GAMG;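 also: cell growth inhibition measured by a viability assay in the GAMG human cell line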
Assay: cells
Assay type: functional, cell-based
Details: Homo sapiens
Description: SANGER: Inhibition of human GAMG cell growth in a cell viability assay.

Row | Structure (SMILES) | pIC50
4 | CN(NC(=O)CC(=O)NN(C)C(=S)c1ccccc1)C(=S)c1ccccc1 [ELESCLOMOL] | 8.60

Tested on: HCC1395;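 also: growth inhibition of HCC1395 cells, read out by a cell viability assay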
Assay: cells
Assay type: functional, cell-based
Details: Homo sapiens
Description: SANGER: Inhibition of human HCC1395 cell growth in a cell viability assay.

Row | Structure (SMILES) | pIC50
5 | CN(NC(=O)CC(=O)NN(C)C(=S)c1ccccc1)C(=S)c1ccccc1 [ELESCLOMOL] | 8.07

Tested on: HCC1954;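 also: growth inhibition of human HCC1954 cells, read out with a cell viability assay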
Assay: cells
Assay type: functional, cell-based
Details: Homo sapiens
Description: SANGER: Inhibition of human HCC1954 cell growth in a cell viability assay.

Row | Structure (SMILES) | pIC50
6 | CN(NC(=O)CC(=O)NN(C)C(=S)c1ccccc1)C(=S)c1ccccc1 [ELESCLOMOL] | < 6.70

Tested on: HCT-15;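 also: cell viability readout, IC50 reflecting suppression of HCT-15 cell growth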
Assay: cells
Assay type: functional, cell-based
Details: Homo sapiens
Description: SANGER: Inhibition of human HCT-15 cell growth in a cell viability assay.

Row | Structure (SMILES) | pIC50
7 | CN(NC(=O)CC(=O)NN(C)C(=S)c1ccccc1)C(=S)c1ccccc1 [ELESCLOMOL] | 6.82

Tested on: HGC-27;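 also: growth inhibition of human HGC-27 cells, read out in a cell viability assay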
Assay: cells
Assay type: functional, cell-based
Details: Homo sapiens
Description: SANGER: Inhibition of human HGC-27 cell growth in a cell viability assay.

Row | Structure (SMILES) | pIC50
8 | CN(NC(=O)CC(=O)NN(C)C(=S)c1ccccc1)C(=S)c1ccccc1 [ELESCLOMOL] | 8.12

Tested on: HLE;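 also: growth inhibition of human HLE cells, read out by a cell viability assay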
Assay: cells
Assay type: functional, cell-based
Details: Homo sapiens
Description: SANGER: Inhibition of human HLE cell growth in a cell viability assay.

Row | Structure (SMILES) | pIC50
9 | CN(NC(=O)CC(=O)NN(C)C(=S)c1ccccc1)C(=S)c1ccccc1 [ELESCLOMOL] | 8.00

Tested on: HN
Assay: cells
Assay type: functional, cell-based
Details: Homo sapiens
Description: SANGER: Inhibition of human HN cell growth in a cell viability assay.

Row | Structure (SMILES) | pIC50
10 | CN(NC(=O)CC(=O)NN(C)C(=S)c1ccccc1)C(=S)c1ccccc1 [ELESCLOMOL] | 7.81

Tested on: HTC-C3;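 also: inhibition of cell growth, read out with a cell viability assay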
Assay: cells
Assay type: functional, cell-based
Details: Homo sapiens
Description: SANGER: Inhibition of human HTC-C3 cell growth in a cell viability assay.

Row | Structure (SMILES) | pIC50
11 | CN(NC(=O)CC(=O)NN(C)C(=S)c1ccccc1)C(=S)c1ccccc1 [ELESCLOMOL] | 7.52

Tested on: HuCCT-1;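 also: growth inhibition of HuCCT-1 cells, read out by a cell viability assay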
Assay: cells
Assay type: functional, cell-based, HuCCT1
Details: Homo sapiens
Description: SANGER: Inhibition of human HuCCT1 cell growth in a cell viability assay.

Row | Structure (SMILES) | pIC50
12 | CN(NC(=O)CC(=O)NN(C)C(=S)c1ccccc1)C(=S)c1ccccc1 [ELESCLOMOL] | 8.26

Tested on: HuP-T3;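 also: HuP-T3 cell growth inhibition, read out with a cell viability assay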
Assay: cells
Assay type: functional, cell-based
Details: Homo sapiens
Description: SANGER: Inhibition of human HuP-T3 cell growth in a cell viability assay.

Row | Structure (SMILES) | pIC50
13 | CN(NC(=O)CC(=O)NN(C)C(=S)c1ccccc1)C(=S)c1ccccc1 [ELESCLOMOL] | 7.25

Tested on: KYSE-270;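 also: cell growth inhibition measured with a viability assay in the human KYSE-270 line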
Assay: cells
Assay type: functional, cell-based
Details: Homo sapiens
Description: SANGER: Inhibition of human KYSE-270 cell growth in a cell viability assay.

Row | Structure (SMILES) | pIC50
14 | CN(NC(=O)CC(=O)NN(C)C(=S)c1ccccc1)C(=S)c1ccccc1 [ELESCLOMOL] | 7.43

Tested on: LCLC-103H cell line
Assay: cells
Assay type: functional, cell-based
Details: Homo sapiens
Description: SANGER: Inhibition of human LCLC-103H cell growth in a cell viability assay.

Row | Structure (SMILES) | pIC50
15 | CN(NC(=O)CC(=O)NN(C)C(=S)c1ccccc1)C(=S)c1ccccc1 [ELESCLOMOL] | < 6.70

Tested on: MC-IXC;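 also: growth inhibition of MC-IXC cells, read out with a cell viability assay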
Assay: cells
Assay type: functional, cell-based
Details: Homo sapiens
Description: SANGER: Inhibition of human MC-IXC cell growth in a cell viability assay.

Row | Structure (SMILES) | pIC50
16 | CN(NC(=O)CC(=O)NN(C)C(=S)c1ccccc1)C(=S)c1ccccc1 [ELESCLOMOL] | 8.14

Tested on: MDA-MB-157
Assay: cells
Assay type: functional, cell-based
Details: Homo sapiens
Description: SANGER: Inhibition of human MDA-MB-157 cell growth in a cell viability assay.

Row | Structure (SMILES) | pIC50
17 | CN(NC(=O)CC(=O)NN(C)C(=S)c1ccccc1)C(=S)c1ccccc1 [ELESCLOMOL] | 8.53

Tested on: MEL-HO
Assay: cells
Assay type: functional, cell-based
Details: Homo sapiens
Description: SANGER: Inhibition of human MEL-HO cell growth in a cell viability assay.

Row | Structure (SMILES) | pIC50
18 | CN(NC(=O)CC(=O)NN(C)C(=S)c1ccccc1)C(=S)c1ccccc1 [ELESCLOMOL] | < 6.70

Tested on: MKN-1;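 also: growth inhibition of human MKN1 cells, read out by a cell viability measurement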
Assay: cells
Assay type: functional, cell-based
Details: Homo sapiens
Description: SANGER: Inhibition of human MKN1 cell growth in a cell viability assay.

Row | Structure (SMILES) | pIC50
19 | CN(NC(=O)CC(=O)NN(C)C(=S)c1ccccc1)C(=S)c1ccccc1 [ELESCLOMOL] | 7.59

Tested on: MKN-45;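 also: growth inhibition of human MKN-45 cells, measured with a cell viability assay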
Assay: cells
Assay type: functional, cell-based
Details: Homo sapiens
Description: SANGER: Inhibition of human MKN45 cell growth in a cell viability assay.

Row | Structure (SMILES) | pIC50
20 | CN(NC(=O)CC(=O)NN(C)C(=S)c1ccccc1)C(=S)c1ccccc1 [ELESCLOMOL] | 7.54

Tested on: NCI-H1437;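 also: growth inhibition of human NCI-H1437 cells, read out by a cell viability assay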
Assay: cells
Assay type: functional, cell-based
Details: Homo sapiens
Description: SANGER: Inhibition of human NCI-H1437 cell growth in a cell viability assay.

Row | Structure (SMILES) | pIC50
21 | CN(NC(=O)CC(=O)NN(C)C(=S)c1ccccc1)C(=S)c1ccccc1 [ELESCLOMOL] | 7.06

Tested on: NCI-H1703;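 also: growth inhibition of NCI-H1703 cells, read out via a cell viability assay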
Assay: cells
Assay type: functional, cell-based
Details: Homo sapiens
Description: SANGER: Inhibition of human NCI-H1703 cell growth in a cell viability assay.

Row | Structure (SMILES) | pIC50
22 | CN(NC(=O)CC(=O)NN(C)C(=S)c1ccccc1)C(=S)c1ccccc1 [ELESCLOMOL] | 8.43

Tested on: NCI-H2405;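 also: growth inhibition of the human cell line, read out with a cell viability assay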
Assay: cells
Assay type: functional, cell-based
Details: Homo sapiens
Description: SANGER: Inhibition of human NCI-H2405 cell growth in a cell viability assay.

Row | Structure (SMILES) | pIC50
23 | CN(NC(=O)CC(=O)NN(C)C(=S)c1ccccc1)C(=S)c1ccccc1 [ELESCLOMOL] | 7.29

Tested on: NCI-H510A;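 also: growth inhibition of NCI-H510A cells, read out with a cell viability assay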
Assay: cells
Assay type: functional, cell-based, Homo sapiens
Details: Homo sapiens, NCI-H510A
Description: SANGER: Inhibition of human NCI-H510A cell growth in a cell viability assay.

Row | Structure (SMILES) | pIC50
24 | CN(NC(=O)CC(=O)NN(C)C(=S)c1ccccc1)C(=S)c1ccccc1 [ELESCLOMOL] | 7.91

Tested on: NCI-H630;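 also: growth inhibition of NCI-H630 cells, read out with a cell viability assay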
Assay: cells
Assay type: functional, cell-based
Details: Homo sapiens
Description: SANGER: Inhibition of human NCI-H630 cell growth in a cell viability assay.

Row | Structure (SMILES) | pIC50
25 | CN(NC(=O)CC(=O)NN(C)C(=S)c1ccccc1)C(=S)c1ccccc1 [ELESCLOMOL] | < 6.70

Tested on: NCI-H810;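 also: IC50 reflects inhibition of cancer cell line growth, read out with a cell viability assay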
Assay: cells
Assay type: functional, cell-based
Details: Homo sapiens
Description: SANGER: Inhibition of human NCI-H810 cell growth in a cell viability assay.

Row | Structure (SMILES) | pIC50
26 | CN(NC(=O)CC(=O)NN(C)C(=S)c1ccccc1)C(=S)c1ccccc1 [ELESCLOMOL] | 6.90

Tested on: NY
Assay: cells
Assay type: functional, cell-based
Details: Homo sapiens
Description: SANGER: Inhibition of human NY cell growth in a cell viability assay.

Row | Structure (SMILES) | pIC50
27 | CN(NC(=O)CC(=O)NN(C)C(=S)c1ccccc1)C(=S)c1ccccc1 [ELESCLOMOL] | 7.42

Tested on: RD
Assay: cells
Assay type: functional, cell-based
Details: Homo sapiens
Description: SANGER: Inhibition of human RD cell growth in a cell viability assay.

Row | Structure (SMILES) | pIC50
28 | CN(NC(=O)CC(=O)NN(C)C(=S)c1ccccc1)C(=S)c1ccccc1 [ELESCLOMOL] | 7.88

Tested on: RMG-I;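 also: growth inhibition of human RMG-I cells, read out with a cell viability assay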
Assay: cells
Assay type: functional, cell-based
Details: Homo sapiens
Description: SANGER: Inhibition of human RMG-I cell growth in a cell viability assay.

Row | Structure (SMILES) | pIC50
29 | CN(NC(=O)CC(=O)NN(C)C(=S)c1ccccc1)C(=S)c1ccccc1 [ELESCLOMOL] | < 6.70

Tested on: SNU-449
Assay: cells
Assay type: functional, cell-based
Details: Homo sapiens
Description: SANGER: Inhibition of human SNU-449 cell growth in a cell viability assay.

Row | Structure (SMILES) | pIC50
30 | CN(NC(=O)CC(=O)NN(C)C(=S)c1ccccc1)C(=S)c1ccccc1 [ELESCLOMOL] | 7.85

Tested on: SW1463;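 also: growth inhibition of SW1463 cells, determined with a cell viability assay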
Assay: cells
Assay type: functional, cell-based
Details: Homo sapiens
Description: SANGER: Inhibition of human SW1463 cell growth in a cell viability assay.

Row | Structure (SMILES) | pIC50
31 | CN(NC(=O)CC(=O)NN(C)C(=S)c1ccccc1)C(=S)c1ccccc1 [ELESCLOMOL] | < 6.70

Tested on: SW1710;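 also: growth inhibition of SW1710 cells, determined with a cell viability assay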
Assay: cells
Assay type: functional, cell-based
Details: Homo sapiens
Description: SANGER: Inhibition of human SW1710 cell growth in a cell viability assay.

Row | Structure (SMILES) | pIC50
32 | CN(NC(=O)CC(=O)NN(C)C(=S)c1ccccc1)C(=S)c1ccccc1 [ELESCLOMOL] | 8.29

Tested on: SW1990;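 also: cell growth inhibition determined with a viability assay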
Assay: cells
Assay type: functional, cell-based
Details: Homo sapiens
Description: SANGER: Inhibition of human SW1990 cell growth in a cell viability assay.

Row | Structure (SMILES) | pIC50
33 | CN(NC(=O)CC(=O)NN(C)C(=S)c1ccccc1)C(=S)c1ccccc1 [ELESCLOMOL] | 8.36

Tested on: SW626;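 also: growth inhibition of SW626 cells, measured with a cell viability assay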
Assay: cells
Assay type: functional, cell-based
Details: Homo sapiens
Description: SANGER: Inhibition of human SW626 cell growth in a cell viability assay.

Row | Structure (SMILES) | pIC50
34 | CN(NC(=O)CC(=O)NN(C)C(=S)c1ccccc1)C(=S)c1ccccc1 [ELESCLOMOL] | 7.27

Tested on: SW780;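 also: growth inhibition of the cells, read out with a cell viability assay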
Assay: cells
Assay type: functional, cell-based
Details: Homo sapiens
Description: SANGER: Inhibition of human SW780 cell growth in a cell viability assay.

Row | Structure (SMILES) | pIC50
35 | CN(NC(=O)CC(=O)NN(C)C(=S)c1ccccc1)C(=S)c1ccccc1 [ELESCLOMOL] | 7.52

Tested on: T-24;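 also: growth inhibition of T-24 cells, read out with a cell viability assay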
Assay: cells
Assay type: functional, cell-based
Details: Homo sapiens
Description: SANGER: Inhibition of human T-24 cell growth in a cell viability assay.

Row | Structure (SMILES) | pIC50
36 | CN(NC(=O)CC(=O)NN(C)C(=S)c1ccccc1)C(=S)c1ccccc1 [ELESCLOMOL] | 8.81

Tested on: A204;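 also: growth inhibition of human A204 cells, read out with a cell viability assay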
Assay: cells
Assay type: functional, cell-based
Details: Homo sapiens
Description: SANGER: Inhibition of human A204 cell growth in a cell viability assay.

Row | Structure (SMILES) | pIC50
37 | CN(NC(=O)CC(=O)NN(C)C(=S)c1ccccc1)C(=S)c1ccccc1 [ELESCLOMOL] | 8.05

Tested on: A-427;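 also: growth inhibition of human A-427 cells, read out by a cell viability assay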
Assay: cells
Assay type: functional, cell-based
Details: Homo sapiens
Description: SANGER: Inhibition of human A427 cell growth in a cell viability assay.

Row | Structure (SMILES) | pIC50
38 | CN(NC(=O)CC(=O)NN(C)C(=S)c1ccccc1)C(=S)c1ccccc1 [ELESCLOMOL] | 8.22

Tested on: C3A;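 also: growth inhibition of C3A human cells, quantified with a cell viability readout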
Assay: cells
Assay type: functional, cell-based
Details: Homo sapiens
Description: SANGER: Inhibition of human C3A cell growth in a cell viability assay.

Row | Structure (SMILES) | pIC50
39 | CN(NC(=O)CC(=O)NN(C)C(=S)c1ccccc1)C(=S)c1ccccc1 [ELESCLOMOL] | < 6.70

Tested on: CAL-39;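 also: cell viability assay measuring growth inhibition of CAL-39 cells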
Assay: cells
Assay type: functional, cell-based
Details: Homo sapiens
Description: SANGER: Inhibition of human CAL-39 cell growth in a cell viability assay.

Row | Structure (SMILES) | pIC50
40 | CN(NC(=O)CC(=O)NN(C)C(=S)c1ccccc1)C(=S)c1ccccc1 [ELESCLOMOL] | 7.88

Tested on: UO-31;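 also: cell viability assay measuring inhibition of cell growth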
Assay: cells
Assay type: functional, cell-based
Details: Homo sapiens
Description: SANGER: Inhibition of human U031 cell growth in a cell viability assay.

Row | Structure (SMILES) | pIC50
41 | CN(NC(=O)CC(=O)NN(C)C(=S)c1ccccc1)C(=S)c1ccccc1 [ELESCLOMOL] | 7.87

Tested on: U-251;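 also: growth inhibition of human U-251 cells, read out through a cell viability assay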
Assay: cells
Assay type: functional, cell-based
Details: Homo sapiens
Description: SANGER: Inhibition of human U251 cell growth in a cell viability assay.

Row | Structure (SMILES) | pIC50
42 | CN(NC(=O)CC(=O)NN(C)C(=S)c1ccccc1)C(=S)c1ccccc1 [ELESCLOMOL] | 8.01

Tested on: CAMA-1;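 also: growth inhibition of CAMA-1 cells, read out with a cell viability assay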
Assay: cells
Assay type: functional, cell-based
Details: Homo sapiens
Description: SANGER: Inhibition of human CAMA-1 cell growth in a cell viability assay.

Row | Structure (SMILES) | pIC50
43 | CN(NC(=O)CC(=O)NN(C)C(=S)c1ccccc1)C(=S)c1ccccc1 [ELESCLOMOL] | < 6.70

Tested on: CAPAN-1;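 also: growth suppression of CAPAN-1 cells, read out by a cell viability assay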
Assay: cells
Assay type: functional, cell-based
Details: Homo sapiens
Description: SANGER: Inhibition of human CAPAN-1 cell growth in a cell viability assay.

Row | Structure (SMILES) | pIC50
44 | CN(NC(=O)CC(=O)NN(C)C(=S)c1ccccc1)C(=S)c1ccccc1 [ELESCLOMOL] | < 6.70
